From patent publication US9545386B2, “Methods of treating infectious diseases” (SLIPPERY ROCK UNIVERSITY FOUNDATION, INC., priority 2007, dated 2017) come the findings set out here.

What all share (format): cell-based
Data set [1] has as its system Trypanosoma rangeli trypomastigotes. In words: In vitro antitrypanosomal bioassay, trypomastigote counts (Probit LC50/LC95). To be noted: T. rangeli; for 24 hr LC95 ± 95% confidence intervals: 24 hr in vitro, 0.02% Triton X-100; for 48 hr LC95 ± 95% confidence intervals: 48 hr in vitro. As for the experimental part: (§1) In this study, 75 μl of Locke's nematode saline (L.N.S.) solution with approximately 1.0×10^5 trypomastigotes/ml of each organism were placed in 15 wells of a cell culture plate. For T. mega, T. conorhini and T. avium, stock concentrations of eryngial (1, 2, 3 and 4 mg/ml) with 0.04% (w/v) Triton X-100 were prepared in L.N.S. Triton X-100 acted as an emulsifier for eryngial. Triplicate samples of each eryngial concentration were prepared by adding 75 μl of the stock to the wells with trypomastigotes of each species. The number of trypanosomes in each well therefore approximated 5×10^4/ml, while final concentrations of eryngial in the wells were 0.5, 1.0, 1.5, and 2.0 mg/ml, respectively. Each sample also had 0.02% Trition X-100. The control samples had no eryngial. The number of trypomastigotes that were present in 20 μl sub-samples of each well was determined using a hemacytometer at 0, 24 and 48 hr. A count of the trypanosomes in each grid was recorded and the average number of organisms per milliliter was determined. The above procedure was repeated to determine the effect of eryngial on T. rangeli. However, the final concentration of eryngial, the test compound, ranged from 0.15 to 0.9 mg/ml.

Data set [2] has as its system Trypanosoma conorhini trypomastigotes. The description is as above. Conditions: T. conorhini; for 24 hr LC95 ± 95% confidence intervals: 24 hr in vitro. As for the experimental part: as §1
For data set [3], the system named is Trypanosoma avium trypomastigotes. The data set is described as above. Conditions: T. avium. As to the method:
as §1

Data set [4] concerns Trypanosoma mega trypomastigotes. The data set is described as above. Conditions: T. mega; for 24 hr LC95 ± 95% confidence intervals: 24 hr in vitro. As for the experimental part:
as §1

The test system of a further data set is Pseudomonas aeruginosa. The data set is described as follows: Antibacterial MIC, 96 well broth dilution. Conditions: P. aeruginosa (gram-negative), 24 hr, 0.02% Triton X-100, highest concentration tested 10 mg/ml. As for the experimental part: (§2) Bacterial cultures were obtained from the American Type Culture Collection (ATCC), except for Streptococcus pyogenes, which was started from a Difco Bactrol disc. The other organisms were Enterococcus faecalis, Staphylococcus aureus, Escherichia coli, Salmonella typhimurium and Pseudomonas aeruginosa. Cultures were grown in Luria-Bertani (LB) broth. Fungi were obtained from Carolina Biological Supply Company (Aspergillus niger, Candida albicans and Cryptococcus neoformans); Presque Isle Cultures, Erie Pa. (Microsporum gypseum); or from ATCC (Penicillium marneffei). Fungal cultures were maintained in Sabouraud dextrose broth (SDB) or agar (SDA). All media components came from Difco.
(§3) Tests were done in flat-bottomed 96 well cell culture plates (Costar). All samples were done in duplicate. Eryngial was suspended in culture medium plus 0.04% Triton-X to make a 2% (20 mg/ml) suspension, which was passed through a 0.22 μm filter to make a uniform emulsion. Serial doubling dilutions of eryngial in culture medium plus 0.04% Triton-X were prepared, and 75 μl was added to each well. 75 μl of cell or spore suspensions in culture medium also were added to each well. The final concentration of Triton-X was 0.02%, and the final concentration of eryngial was 1% (10 mg/ml) at the highest concentration tested.
(§4) Overnight bacterial cultures in LB medium were diluted into fresh LB to an OD600 of 0.02 to 0.03, and then diluted 1000-fold again in LB. […] Blank wells for each concentration of eryngial were prepared with plain culture medium added.
(§5) The 96 well plates were incubated at 37° for 24 hr (in a candle jar for S. pyogenes), and the OD630 was read on an EL800 universal microplate reader (Bio-Tek Instruments). Readings from duplicate wells were averaged, and readings from duplicate blank wells for each concentration of eryngial were subtracted to generate the final values. The minimum inhibitory concentration (MIC, μg/ml) was defined as the well with the highest dilution of eryngial in which no growth was observed.
Background: In broth dilution the organism is exposed to a series of concentrations in liquid medium.

Another data set concerns Escherichia coli. The data set is described as follows: Antibacterial MIC, 96 well broth dilution. Conditions: E. coli (gram-negative), 24 hr, 0.02% Triton X-100, highest concentration tested 10 mg/ml. As to the method: as §2, §3, §4, §5
Another data set has as its system Salmonella typhimurium. The data set is described as follows: Antibacterial MIC, 96 well broth dilution. Conditions: S. typhimurium (gram-negative), 24 hr, 0.02% Triton X-100, highest concentration tested 10 mg/ml. As for the experimental part:
as §2, §3, §4, §5

The mark [5] stands for this setting: 48 hr in vitro, listed as eryngial.

For `CCCCCCCCC/C=C/C=O` [Eryngial, trans-2-dodecenal], the “24 hr LC95 ± 95% confidence intervals” value in data set [1] was 0.45 (0.38-0.55) mg/ml; in data set [1] (listed as eryngial), 0.45 mg/mL; in data set [2], 2.91 (2.22-4.69) mg/ml; in data set [2] (listed as eryngial), 2.91 mg/mL; in data set [3] (24 hr in vitro) it was 3.12 (2.57-4.16) mg/ml; in data set [3] (24 hr in vitro, listed as eryngial), 3.12 mg/mL. In addition, the “24 hr LC95 ± 95% confidence intervals” value was 2.85 (2.20-4.40) mg/ml in data set [4] and 2.85 mg/mL in data set [4] (listed as eryngial). For the same compound, the “48 hr LC95 ± 95% confidence intervals” value in data set [1] is 0.31 (0.26-0.43) mg/ml; in data set [1] (listed as eryngial), 0.31 mg/mL; in data set [2] (48 hr in vitro), 1.02 (0.91-1.20) mg/ml; in data set [2] (setting [5]), 1.14 mg/mL; in data set [3] (48 hr in vitro) it was 2.31 (1.87-3.26) mg/ml; in data set [3] (setting [5]), 1.02 mg/mL. Also, the “48 hr LC95 ± 95% confidence intervals” value in data set [4] (48 hr in vitro) is 1.14 (0.95-1.56) mg/ml; in data set [4] (setting [5]), 2.31 mg/mL. The “48 hr LC50 ± 95% confidence intervals” value is given as 0.68 (0.62-0.75) mg/ml in data set [2] (48 hr in vitro), 0.76 (0.63-0.87) mg/ml in data set [3] (48 hr in vitro) and 0.50 (0.39-0.58) mg/ml in data set [4] (48 hr in vitro). Besides, the “24 hr LC50 ± 95% confidence intervals” value in data set [3] (24 hr in vitro) is 1.19 (0.96-1.40) mg/ml. The inhibited by eryngial result in the data set on Pseudomonas aeruginosa, with Escherichia coli and in the data set with Salmonella typhimurium was “none” each time.
